From ChEMBL document CHEMBL4507300 (2021)

Experiments:
[1] = molecular target: Serine/threonine-protein kinase TBK1 (Homo sapiens) (UniProt Q9UHD2); details: Compound concentration 1000.0 nM
[2] = molecular target: Cyclin-dependent kinase 7 (Homo sapiens) (UniProt P50613); details: Compound concentration 1000.0 nM
[3] = molecular target: Tyrosine-protein kinase receptor Tie-1 (Homo sapiens) (UniProt P35590); details: Compound concentration 1000.0 nM
[4] = molecular target: Calcium/calmodulin-dependent protein kinase type II subunit alpha (Homo sapiens) (UniProt Q9UQM7); details: Compound concentration 1000.0 nM
Calcium/calmodulin-dependent protein kinase type II subunit alpha (Homo sapiens), sequence (Q9UQM7 whole entry, canonical isoform): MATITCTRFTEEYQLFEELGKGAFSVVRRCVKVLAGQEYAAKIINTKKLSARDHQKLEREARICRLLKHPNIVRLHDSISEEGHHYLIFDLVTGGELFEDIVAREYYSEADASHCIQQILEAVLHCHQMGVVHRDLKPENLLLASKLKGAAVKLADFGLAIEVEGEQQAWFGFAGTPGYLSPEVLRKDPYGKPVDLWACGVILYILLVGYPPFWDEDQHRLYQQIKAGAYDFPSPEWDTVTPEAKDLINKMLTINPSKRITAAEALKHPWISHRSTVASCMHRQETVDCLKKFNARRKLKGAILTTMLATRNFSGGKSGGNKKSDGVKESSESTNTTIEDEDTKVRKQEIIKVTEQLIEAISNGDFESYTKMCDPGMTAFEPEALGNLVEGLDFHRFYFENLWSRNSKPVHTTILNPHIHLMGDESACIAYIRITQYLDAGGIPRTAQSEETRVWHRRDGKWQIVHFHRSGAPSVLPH

[5] = system: Phosphatidylinositol 4,5-bisphosphate 3-kinase catalytic subunit alpha isoform (Homo sapiens), P42336 [H1047L]; details: Compound concentration 1000.0 nM
[6] = molecular target: Inhibitor of nuclear factor kappa-B kinase subunit alpha (Homo sapiens) (UniProt O15111); details: Compound concentration 1000.0 nM
Inhibitor of nuclear factor kappa-B kinase subunit alpha (Homo sapiens), sequence (O15111 whole entry): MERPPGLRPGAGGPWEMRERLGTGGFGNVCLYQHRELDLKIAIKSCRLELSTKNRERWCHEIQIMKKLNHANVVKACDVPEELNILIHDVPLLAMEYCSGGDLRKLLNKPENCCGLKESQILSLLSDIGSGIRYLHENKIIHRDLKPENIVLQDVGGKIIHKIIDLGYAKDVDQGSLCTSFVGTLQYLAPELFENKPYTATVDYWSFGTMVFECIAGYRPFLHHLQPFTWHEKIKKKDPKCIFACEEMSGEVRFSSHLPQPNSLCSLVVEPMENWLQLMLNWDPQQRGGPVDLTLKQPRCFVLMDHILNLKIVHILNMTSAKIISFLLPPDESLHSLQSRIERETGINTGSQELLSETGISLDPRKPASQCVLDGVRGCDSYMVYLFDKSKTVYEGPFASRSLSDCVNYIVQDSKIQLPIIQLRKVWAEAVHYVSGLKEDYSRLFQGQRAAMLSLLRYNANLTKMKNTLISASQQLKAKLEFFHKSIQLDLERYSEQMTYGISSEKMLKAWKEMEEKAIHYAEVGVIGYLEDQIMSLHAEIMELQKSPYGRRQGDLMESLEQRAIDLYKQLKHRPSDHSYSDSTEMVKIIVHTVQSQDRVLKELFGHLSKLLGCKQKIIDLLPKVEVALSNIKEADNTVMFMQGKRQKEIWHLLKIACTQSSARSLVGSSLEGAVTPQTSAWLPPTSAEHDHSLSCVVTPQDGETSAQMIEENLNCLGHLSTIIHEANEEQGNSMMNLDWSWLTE

[7] = molecular target: Serine/threonine-protein kinase D2 (Homo sapiens) (UniProt Q9BZL6); details: Compound concentration 1000.0 nM
[8] = molecular target: Serine/threonine-protein kinase pim-2 (Homo sapiens) (UniProt Q9P1W9); details: Compound concentration 1000.0 nM
[9] = system: Proto-oncogene tyrosine-protein kinase receptor Ret (Homo sapiens), P07949 [V804M]; details: Compound concentration 1000.0 nM
[10] = molecular target: Ephrin type-B receptor 6 (Homo sapiens) (UniProt O15197); details: Compound concentration 1000.0 nM
Ephrin type-B receptor 6 (Homo sapiens), sequence (O15197 whole entry): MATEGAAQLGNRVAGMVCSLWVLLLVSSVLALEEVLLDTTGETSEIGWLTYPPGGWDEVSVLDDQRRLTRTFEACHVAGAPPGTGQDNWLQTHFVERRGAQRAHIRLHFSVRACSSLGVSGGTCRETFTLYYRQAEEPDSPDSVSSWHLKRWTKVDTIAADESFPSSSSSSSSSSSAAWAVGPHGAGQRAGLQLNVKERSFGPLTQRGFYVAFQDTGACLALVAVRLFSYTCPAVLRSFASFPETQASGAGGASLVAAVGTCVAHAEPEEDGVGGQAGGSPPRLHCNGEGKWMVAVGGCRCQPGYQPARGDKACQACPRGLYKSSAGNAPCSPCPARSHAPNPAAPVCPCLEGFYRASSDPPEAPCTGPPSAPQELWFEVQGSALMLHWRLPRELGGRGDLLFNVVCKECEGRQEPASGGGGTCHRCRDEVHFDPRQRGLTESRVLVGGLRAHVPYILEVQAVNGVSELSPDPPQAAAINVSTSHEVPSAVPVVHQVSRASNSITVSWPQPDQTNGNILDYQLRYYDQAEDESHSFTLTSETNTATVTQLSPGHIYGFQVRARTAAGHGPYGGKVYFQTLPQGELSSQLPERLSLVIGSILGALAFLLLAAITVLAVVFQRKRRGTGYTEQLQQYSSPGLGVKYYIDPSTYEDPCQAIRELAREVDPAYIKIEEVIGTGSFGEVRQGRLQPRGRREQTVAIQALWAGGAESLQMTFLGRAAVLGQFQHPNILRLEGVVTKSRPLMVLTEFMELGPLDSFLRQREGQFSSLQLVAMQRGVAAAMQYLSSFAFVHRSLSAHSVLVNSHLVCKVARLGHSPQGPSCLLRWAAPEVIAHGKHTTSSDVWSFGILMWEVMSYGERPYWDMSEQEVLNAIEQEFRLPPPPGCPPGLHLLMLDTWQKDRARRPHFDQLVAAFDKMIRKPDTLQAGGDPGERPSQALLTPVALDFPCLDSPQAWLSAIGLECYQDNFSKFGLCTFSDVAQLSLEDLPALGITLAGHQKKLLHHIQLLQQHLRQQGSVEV

[11] = molecular target: Serine/threonine-protein kinase MARK1 (Homo sapiens) (UniProt Q9P0L2); details: Compound concentration 1000.0 nM
[12] = molecular target: Casein kinase I isoform epsilon (Homo sapiens) (UniProt P49674); details: Compound concentration 1000.0 nM
[13] = molecular target: Fibroblast growth factor receptor 3 (Homo sapiens) (UniProt P22607); details: Compound concentration 1000.0 nM
[14] = molecular target: Mast/stem cell growth factor receptor Kit (Homo sapiens) (UniProt P10721); details: Compound concentration 1000.0 nM
[15] = molecular target: Ephrin type-A receptor 8 (Homo sapiens) (UniProt P29322); details: Compound concentration 1000.0 nM
Ephrin type-A receptor 8 (Homo sapiens), sequence (P29322 whole entry): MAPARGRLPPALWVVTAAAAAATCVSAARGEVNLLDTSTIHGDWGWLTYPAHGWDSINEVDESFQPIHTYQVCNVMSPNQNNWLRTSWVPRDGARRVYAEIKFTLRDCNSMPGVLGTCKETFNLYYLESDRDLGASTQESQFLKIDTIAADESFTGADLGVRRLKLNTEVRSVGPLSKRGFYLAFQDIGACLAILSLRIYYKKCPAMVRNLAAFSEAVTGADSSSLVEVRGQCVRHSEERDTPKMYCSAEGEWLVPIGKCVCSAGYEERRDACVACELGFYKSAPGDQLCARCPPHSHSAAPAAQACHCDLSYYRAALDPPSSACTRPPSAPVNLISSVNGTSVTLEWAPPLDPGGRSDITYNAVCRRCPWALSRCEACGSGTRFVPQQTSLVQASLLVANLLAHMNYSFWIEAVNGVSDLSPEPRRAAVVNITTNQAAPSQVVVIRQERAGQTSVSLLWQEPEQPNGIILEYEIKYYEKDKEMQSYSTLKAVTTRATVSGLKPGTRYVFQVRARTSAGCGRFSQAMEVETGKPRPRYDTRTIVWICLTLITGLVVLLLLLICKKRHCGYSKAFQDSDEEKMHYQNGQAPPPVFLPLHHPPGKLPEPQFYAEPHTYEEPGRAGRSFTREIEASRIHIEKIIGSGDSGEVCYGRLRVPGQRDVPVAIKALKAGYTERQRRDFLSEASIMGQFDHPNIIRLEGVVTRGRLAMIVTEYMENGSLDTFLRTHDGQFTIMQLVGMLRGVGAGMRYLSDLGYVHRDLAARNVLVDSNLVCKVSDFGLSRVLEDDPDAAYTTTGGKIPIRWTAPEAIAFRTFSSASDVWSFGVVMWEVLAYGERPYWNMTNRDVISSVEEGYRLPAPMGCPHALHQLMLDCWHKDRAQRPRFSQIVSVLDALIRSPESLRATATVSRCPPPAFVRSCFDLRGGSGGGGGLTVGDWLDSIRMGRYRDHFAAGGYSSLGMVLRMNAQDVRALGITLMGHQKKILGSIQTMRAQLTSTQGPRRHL

[16] = molecular target: Atypical kinase COQ8B, mitochondrial (Homo sapiens) (UniProt Q96D53); details: Compound concentration 1000.0 nM
[17] = molecular target: STE20-like serine/threonine-protein kinase (Homo sapiens) (UniProt Q9H2G2); details: Compound concentration 1000.0 nM
[18] = molecular target: Ribosomal protein S6 kinase alpha-5 (Homo sapiens) (UniProt O75582); details: Compound concentration 1000.0 nM
[19] = molecular target: Insulin receptor-related protein (Homo sapiens) (UniProt P14616); details: Compound concentration 1000.0 nM
[20] = molecular target: Aurora kinase A (Homo sapiens) (UniProt O14965); details: Compound concentration 1000.0 nM
[21] = molecular target: Serine/threonine-protein kinase tousled-like 2 (Homo sapiens) (UniProt Q86UE8); details: Compound concentration 1000.0 nM
Serine/threonine-protein kinase tousled-like 2 (Homo sapiens), sequence (Q86UE8 whole entry, looked up): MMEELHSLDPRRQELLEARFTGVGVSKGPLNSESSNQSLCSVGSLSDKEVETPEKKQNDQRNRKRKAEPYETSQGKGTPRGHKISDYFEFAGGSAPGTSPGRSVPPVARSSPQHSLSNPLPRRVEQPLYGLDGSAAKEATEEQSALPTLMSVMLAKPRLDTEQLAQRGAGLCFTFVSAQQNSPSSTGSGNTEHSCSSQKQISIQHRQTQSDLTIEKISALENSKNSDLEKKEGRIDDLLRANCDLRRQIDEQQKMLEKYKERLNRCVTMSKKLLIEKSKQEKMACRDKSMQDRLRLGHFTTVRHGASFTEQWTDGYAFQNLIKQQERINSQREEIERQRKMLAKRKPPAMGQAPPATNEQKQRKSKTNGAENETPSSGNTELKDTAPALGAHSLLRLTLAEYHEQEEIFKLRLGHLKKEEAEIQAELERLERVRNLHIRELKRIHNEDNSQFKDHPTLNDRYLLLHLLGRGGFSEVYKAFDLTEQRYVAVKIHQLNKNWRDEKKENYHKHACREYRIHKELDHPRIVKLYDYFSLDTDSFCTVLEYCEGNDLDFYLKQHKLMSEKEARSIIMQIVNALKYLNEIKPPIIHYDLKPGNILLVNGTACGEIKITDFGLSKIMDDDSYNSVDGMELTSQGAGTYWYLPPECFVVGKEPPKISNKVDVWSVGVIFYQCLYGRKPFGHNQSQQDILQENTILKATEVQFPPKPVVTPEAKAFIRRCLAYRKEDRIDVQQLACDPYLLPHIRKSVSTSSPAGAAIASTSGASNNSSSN

[22] = molecular target: Sodium-dependent noradrenaline transporter (Homo sapiens) (UniProt P23975); details: Compound concentration 10.0 uM
[23] = molecular target: Serine/threonine-protein kinase Nek10 (Homo sapiens) (UniProt Q6ZWH5); details: Compound concentration 1000.0 nM
[24] = molecular target: Ribosomal protein S6 kinase alpha-3 (Homo sapiens) (UniProt P51812); details: Compound concentration 1000.0 nM
[25] = molecular target: Serine/threonine-protein kinase haspin (Homo sapiens) (UniProt Q8TF76); details: Compound concentration 1000.0 nM
[26] = molecular target: Ribosomal protein S6 kinase alpha-1 (Homo sapiens) (UniProt Q15418); details: Compound concentration 1000.0 nM
[27] = molecular target: Sodium-dependent serotonin transporter (Homo sapiens, UniProt P31645); details: Compound concentration 10.0 uM
[28] = molecular target: D(1B) dopamine receptor (Homo sapiens) (UniProt P21918); details: Compound concentration 10.0 uM
[29] = molecular target: Ephrin type-A receptor 6 (Homo sapiens) (UniProt Q9UF33); details: Compound concentration 1000.0 nM
[30] = molecular target: Kappa-type opioid receptor (Homo sapiens) (UniProt P41145); details: Compound concentration 10.0 uM
[31] = system: Tyrosine-protein kinase ABL1 (Homo sapiens), P00519 [T315I]; details: Compound concentration 1000.0 nM
[32] = molecular target: 1-phosphatidylinositol 3-phosphate 5-kinase (Homo sapiens) (UniProt Q9Y2I7); details: Compound concentration 1000.0 nM
[33] = molecular target: Tyrosine-protein kinase ITK/TSK (Homo sapiens) (UniProt Q08881); details: Compound concentration 1000.0 nM
[34] = molecular target: G protein-coupled receptor kinase 4 (Homo sapiens) (UniProt P32298); details: Compound concentration 1000.0 nM
[35] = system: Receptor-type tyrosine-protein kinase FLT3 (Homo sapiens), P36888 [UNDEFINED MUTATION]; details: Compound concentration 1000.0 nM
[36] = molecular target: Serine/threonine-protein kinase PLK3 (Homo sapiens) (UniProt Q9H4B4); details: Compound concentration 1000.0 nM
[37] = molecular target: Serine/threonine-protein kinase PAK 4 (Homo sapiens) (UniProt O96013); details: Compound concentration 1000.0 nM
[38] = molecular target: 5-hydroxytryptamine receptor 2B (Homo sapiens, UniProt P41595); details: Compound concentration 10.0 uM
[39] = molecular target: Cyclin-dependent kinase 4 (Homo sapiens) (UniProt P11802); details: Compound concentration 1000.0 nM
[40] = molecular target: Tyrosine-protein kinase ABL1 (Homo sapiens) (UniProt P00519); details: Compound concentration 1000.0 nM
[41] = molecular target: Casein kinase I isoform alpha-like (Homo sapiens) (UniProt Q8N752); details: Compound concentration 1000.0 nM
[42] = molecular target: Phosphatidylinositol 4,5-bisphosphate 3-kinase catalytic subunit delta isoform (Homo sapiens) (UniProt O00329); details: Compound concentration 1000.0 nM
Phosphatidylinositol 4,5-bisphosphate 3-kinase catalytic subunit delta isoform (Homo sapiens), sequence (O00329 whole entry, canonical isoform): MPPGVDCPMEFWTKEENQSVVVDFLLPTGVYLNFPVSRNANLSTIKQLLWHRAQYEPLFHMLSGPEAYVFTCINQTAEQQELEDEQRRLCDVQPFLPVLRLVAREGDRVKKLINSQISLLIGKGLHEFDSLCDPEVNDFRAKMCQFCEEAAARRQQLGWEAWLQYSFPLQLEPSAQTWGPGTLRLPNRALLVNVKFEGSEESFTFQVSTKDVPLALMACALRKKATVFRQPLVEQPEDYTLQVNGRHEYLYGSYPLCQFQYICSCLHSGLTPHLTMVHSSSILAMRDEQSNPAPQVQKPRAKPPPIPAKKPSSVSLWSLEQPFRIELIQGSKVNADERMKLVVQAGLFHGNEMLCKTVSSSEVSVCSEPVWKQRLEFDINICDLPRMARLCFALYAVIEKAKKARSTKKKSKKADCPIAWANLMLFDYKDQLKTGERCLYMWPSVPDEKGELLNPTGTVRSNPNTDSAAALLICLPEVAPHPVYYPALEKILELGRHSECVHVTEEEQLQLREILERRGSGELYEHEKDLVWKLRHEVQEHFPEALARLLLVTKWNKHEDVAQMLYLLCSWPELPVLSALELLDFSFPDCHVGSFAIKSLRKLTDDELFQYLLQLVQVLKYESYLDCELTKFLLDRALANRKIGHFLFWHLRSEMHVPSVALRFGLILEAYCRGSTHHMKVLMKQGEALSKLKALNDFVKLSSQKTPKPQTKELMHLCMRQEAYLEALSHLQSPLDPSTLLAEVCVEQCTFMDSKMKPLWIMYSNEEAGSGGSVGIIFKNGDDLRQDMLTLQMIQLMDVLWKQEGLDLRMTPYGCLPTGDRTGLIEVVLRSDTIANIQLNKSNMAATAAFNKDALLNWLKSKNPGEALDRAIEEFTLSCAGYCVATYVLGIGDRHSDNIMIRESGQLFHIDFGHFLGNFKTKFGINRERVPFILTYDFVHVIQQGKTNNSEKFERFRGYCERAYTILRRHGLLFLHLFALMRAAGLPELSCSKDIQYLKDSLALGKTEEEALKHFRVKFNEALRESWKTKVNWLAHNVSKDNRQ

[43] = molecular target: Platelet-derived growth factor receptor alpha (Homo sapiens) (UniProt P16234); details: Compound concentration 1000.0 nM
[44] = molecular target: Serine/threonine-protein kinase pim-1 (Homo sapiens) (UniProt P11309); details: Compound concentration 1000.0 nM
[45] = molecular target: SRSF protein kinase 2 (Homo sapiens) (UniProt P78362); details: Compound concentration 1000.0 nM

COc1cccc(CNC(=O)c2nc3scc(COCc4ccc(C(=O)O)cc4)c3c(=O)[nH]2)c1 [T-26c]
inactive: residual activity [1] 94% | residual activity [2] 80.5% | residual activity [3] 100% | residual activity [4] 92.5% | residual activity [5] 100% | residual activity [6] 64.8% | residual activity [7] 100% | residual activity [8] 100% | residual activity [9] 95.3% | residual activity [10] 100% | residual activity [11] 96.7% | residual activity [12] 100% | residual activity [13] 100% | residual activity [14] 81.3% | residual activity [15] 82.5% | residual activity [16] 93.8% | residual activity [17] 100% | residual activity [18] 98% | residual activity [19] 100% | residual activity [20] 80.9% | residual activity [21] 100% | inhibition [22] 12.6% | residual activity [23] 61.7% | residual activity [24] 100% | residual activity [25] 92.5% | residual activity [26] 100% | inhibition [27] -3.64% | inhibition [28] 11.9% | residual activity [29] 85.4% | inhibition [30] 8.18% | residual activity [31] 92% | residual activity [32] 100% | residual activity [33] 86.8% | residual activity [34] 72.1% | residual activity [35] 93.7% | residual activity [36] 65.3% | residual activity [37] 100% | inhibition [38] -9.07% | residual activity [39] 61.7% | residual activity [40] 68.6% | residual activity [41] 94.1% | residual activity [42] 85.7% | residual activity [43] 56.3% | residual activity [44] 100% | residual activity [45] 100%
